Publication PMC12928571, “Idler Compounds: A Simple Protocol for Openly Sharing Fridge Contents for Cross-Screening” (Journal of Medicinal Chemistry, 2026)

Tests used:
[1] = system: E. coli (NCTC 12923) +PMBN; assay: Activity against E. coli in the presence of PMBN (30 μg/mL); type: cell-based, Escherichia coli; conditions: 100 μM, active when inhibition >80%
[2] = Solubility by forward light-scatter (NEPHELOstar Plus); type: physicochemical; conditions: 1% DMSO in DPBS pH 7.1, 37 °C; for solubility (in words): 2 h
[3] = system: Huh7 cells; conditions: reported after plate MHT-0001 was prepared, reference not printed at the place; cited from earlier work
[4] = system: chikungunya virus nsp2 helicase; conditions: from originating chikungunya virus nsp2 helicase project; cited from earlier work
[5] = system: C. albicans (NCPF 3281); assay: Activity against C. albicans, microbroth growth inhibition (OD530); type: cell-based, Candida albicans; conditions: 100 μM; active when inhibition >80%
[6] = system: Gram-negative strain; assay: Activity on a Gram-negative strain without PMBN (strain not given); type: cell-based; conditions: 100 μM, strain not named
[7] = system: A. baumannii (ATCC 17978) +PMBN; assay: Activity against A. baumannii in the presence of PMBN (30 μg/mL); type: cell-based, Acinetobacter baumannii; conditions: 100 μM, active when inhibition >80%
[8] = system: SARS-CoV-2 nonstructural protein 12 (Nsp12); conditions: from originating SARS-CoV-2 Nsp12 project; cited from earlier work
[9] = system: P. falciparum; conditions: from originating P. falciparum / Open Source Malaria projects; cited from earlier work
[10] = system: Mycobacterium avium (ATCC15796); assay: Activity against Mycobacterium avium, luciferase reporter strain luminescence; conditions: 10 μM; active when inhibition >50%
[11] = system: Mycobacterium abscessus (NCTC 14045); assay: Activity against Mycobacterium abscessus, luciferase reporter strain luminescence; conditions: 10 μM; active when inhibition >50%
[12] = system: S. aureus (ATCC 9144); assay: Activity against S. aureus, microbroth growth inhibition (OD600); type: cell-based, Staphylococcus aureus; conditions: 100 μM; active when inhibition >80%
[13] = system: DENV serotype 2; conditions: from originating DENV RdRp project; reference not printed at the place; cited from earlier work

## O=S(=O)(Nc1ccc(Oc2ccccc2)cc1)c1cccc(C(F)(F)F)c1 [EC055-1]
[1]
  activity on E. coli +PMBN (in words): narrow–spectrum activity

## CC1(C)C2CCC1(C)C(OCC(O)CNC1CCCCC1)C2 (centres unmarked) [RA-0020564]
[2]; DPBS with 1% DMSO, aqueous buffer, kinetic from dmso stock
  solubility at 2 h: > 100 µM
[3]
  CC50: 14.5 µM
[1]; listed as well G6
  activity on E. coli +PMBN (in words): narrow–spectrum activity

## Oc1ccc(CN2CCN(c3ccccc3F)CC2)c2cccnc12 [RA-0020681]
[2]
  solubility (in words): poor
[4]
  unwinding or ATPase inhibitory effect (in words): no unwinding or ATPase inhibitory effect
[5]
  activity on C. albicans (in words): selective activity

## COc1ccc2c(c1)nc(-c1c[nH]c3ccc(N4CCSCC4)cc13)c1[nH]ccc12 [WEL2.92a]
[6]
  activity on a Gram-negative strain (in words): showed activity

## COc1ccc(-c2ccc(CNc3ccnc(S(=O)(=O)F)c3)s2)cc1 [RA-0020649-01]
[5]
  activity on C. albicans (in words): selective activity

## O=C(Nc1ccccc1)C(Cl)C(=O)c1ccccc1 (centres unmarked) [RA-0020661-01]
[7]
  activity on A. baumannii +PMBN (in words): narrow–spectrum activity

## CC1=CC(=O)C=C(C)C1=NOS(=O)(=O)c1ccc(Cl)cc1 [RA-0001351]
[2]
  solubility (in words): good solubility
[8]
  potency on Nsp12 (in words): potent

## CC(C)c1cc(Nc2nc(N[C@@H](CO)C3CCCCC3)nc3[nH]ncc23)n[nH]1 [WYH-9]
[1]
  activity on E. coli +PMBN (in words): narrow–spectrum activity

## Nc1ncnc2cc(-c3cccc(S(N)(=O)=O)c3)sc12 [YNW5-2]
[9]
  antiplasmodial activity / inhibition against P. falciparum (in words): potent and selective inhibition
[10]
  activity on M. avium (in words): showed activity
[1]
  activity on E. coli +PMBN (in words): narrow–spectrum activity

## COc1ccc2c(c1)nc(-c1c[nH]c3cc(N4CCOCC4)ccc13)c1[nH]ccc12 [WEL2.76]
[11]
  activity on M. abscessus (in words): no noticeable effect
[9]
  antiplasmodial activity / inhibition against P. falciparum (in words): promising antiplasmodial activity
[2]
  solubility (in words): poor
[12]
  activity on S. aureus (in words): strong activity
[10]
  activity on M. avium (in words): no noticeable effect
[1]
  activity on E. coli +PMBN (in words): strong activity
[7]
  activity on A. baumannii +PMBN (in words): strong activity
[5]
  activity on C. albicans (in words): no noticeable effect

## COc1cc2nc(Nc3cc(C)[nH]n3)nc(Nc3cc(C)[nH]n3)c2cc1OC [MA20]
[5]
  activity on C. albicans (in words): selective activity

## Cc1ccc(C)c(N2CCN(C(=O)C3CCN(c4ncnc5c4sc4ncccc45)CC3)CC2)c1 [RA-0020572]
[13]
  antiviral activity on DENV serotype 2: 2.7 µM
